Patent publication US20250295776A1, “CLEAVAGE RESISTANT CD16 CONSTRUCTS AND USES THEREOF” (Celularity Inc., priority 2022, published 2025)

Key:
CD34 cells = assay: CD34 cell expansion at Day 14 of the culture with CRL compounds; assay type: cell-based, human; settings: 10 μM
Description: (§1) For biological testing, the compounds were provided to culture to evaluate their effects on NK cell expansion and differentiation. Specifically, donors of CD34+ cells (StemCell Technology) were thawed and expanded in vitro following NK culture protocol. During the first 14 days of the culture, each CRL compounds was dissolved in DMSO and added to the culture at 10 μM concentration. SR1 (at 10 μM) served as a positive control compound, while DMSO alone without any compound served as a negative control. At the end of the culture on Day 35, cell expansion, natural killer (NK) cell differentiation and cytotoxicity of the cells against K562 tumor cell line were characterized. Due to the large number of the compounds, the testing was performed in two experiments, CRL1-11 and CRL 12-22. The same donors were used for each experiment. Positive and negative controls were also included in both experiments.

CD34+ cells [1] = assay: NK cell expansion in 35-day three-stage culture with CRL compounds; assay type: cell-based, human; settings: for cell expansion compared to SR1: 10 μM, Day 35; for expansion, differentiation and cytotoxicity profiles compared to SR1: PNK-007 culture
Text: (§2) UCB CD34+ cells were cultivated in presence of cytokines including thrombopoietin, SCF, Flt3 ligand, IL-7, IL-15 and IL-2 for 35 days to produce three-stage NK cells, as described in Example 1. Multi-color flow cytometry was used to determine the phenotypic characteristics of three-stage NK cells.
as §1

K562 tumor cell line = assay: Cytotoxicity of compound-cultured cells against K562; assay type: cell-based; settings: 10:1 E:T ratio
Description: as §1
Cytotoxicity assay was run using compound cultured cells against K562 tumor cells at 10:1 effector to target ratio (FIGS. 5A-5B) to evaluate cell functions.

CD34+ cells [2] = assay: NK cell differentiation of compound-cultured cells (flow cytometry); assay type: cell-based, human
Text: as §2, §1

CD16 [3] = assay: Shedding assay of CD16 variants transduced CYNK cells (PMAi 2 h); assay type: cell-based, human; settings: for CD16 shedding percentage: post 2 h PMAi stimulation, n=6 donors, Lentigen LVV
Description: Non-transduced (NT) CYNK cells were used as a control. After 2-hour stimulation, cells from each treatment condition were then washed twice with FACS buffer (PBS with 0.5 mM EDTA and 2% FBS) and incubated human Fc block (BD Biosciences, Cat #564220) at room temperature for 10 minutes. Staining was then performed with anti-human CD16 PE (BD Biosciences, Cat #556619), anti-human CD56 APC (BD Biosciences, Cat #555518), and anti-human CD3 APC-H7 (BD Biosciences, Cat #560176), or with the corresponding isotype controls for 30 minutes at 4° C. Following washing 2× with FACS buffer the viability stain 7-Aminoactinomycin D (7-AAD) (BD Biosciences, Cat #559925) was added to all stained samples and incubated for ten minutes prior to data acquisition. The data was acquired on a […] (BD Biosciences, San Jose, CA) and analyzed in FlowJo (Tree Star, Ashland, OR). The data were expressed as % CD56^+CD16+ cells gated under 7-AAD^− cells. Setting of the % positive gate was done using isotype-stained samples as controls.

CD16 [4] = assay: CD16 expression of CD16 variants transduced CYNK cells (flow cytometry); assay type: cell-based, human
Description: (§3) Human placental CD34+ cells were transduced with a lentivirus vector expressing a CD16 variants as indicated and cultured for 35 days in the presence of cytokines, including thrombopoietin, SCF, Flt3 ligand, IL-7, IL-15 and IL-2, to generate CYNK cells.
The phenotype of CYNK cells was analyzed by multicolor flow cytometry. CYNK cells were washed and stained with fluorochrome-conjugated antibodies diluted in staining buffer [2% fetal bovine serum (FBS) in phosphate buffered saline (PBS)] according to the manufacturer's protocol. Dead cells were labelled with the Live/Dead Fixable Aqua Stain (Invitrogen, Cat #L34957) and gated out. Data were acquired on BD Fortessa X20 flow cytometer (BD Biosciences) and were analyzed using FlowJo software. The data were expressed as % positive cells gated under CD56+CD3-Aqua− single cells based on the viability staining used. Setting of the % positive gate was done using the corresponding isotype-stained samples as controls.

[5] = system: HER2+ NCI-N87 gastric tumor cell line; assay: Cytokine secretion assay (Luminex) of CD16 variants transduced CYNK cells with NCI-N87; assay type: cell-based
Description: Two-day in vitro recovered CYNK cells were used in this assay as the effector cells. The HER2^+ NCI-N87 gastric tumor cell line was used as the target cell. […] The supernatant was then collected after 24 h and used for downstream analysis. The cytokine concentrations were determined by Luminex analysis using a customer selected MILLIPLEX MAP magnetic bead kit (EMD Millipore, Billerica, MA, Cat #HCD8MAG-15K-07 for GM-CSF, TNF-α, and IFN-γ) according to the protocol provided by the manufacturer. The data were analyzed using Belysa software (Millipore Sigma).

CD16 [6] = assay: CD16VP shedding assay (PMA/ionomycin); assay type: cell-based, human
CD16 [7] = assay: NK surface markers and CD16 expression of PNK-CD16VP cells (flow cytometry, day 35); assay type: cell-based, human; settings: n=8
Description: Non-transduced PNK cells (NT) served as a control. […] IgG was used as ADCC control. In vivo anti-tumor activity was assessed in a Daudi disseminated Xenograft model in NSG mice. […] Tumor burden in mice was monitored by Bioluminescence Imaging (BLI). Statistical differences between the groups were calculated using paired t-test using Prism.
Cell Expansion and Characterization: Cell expansion was recorded during the culture process.

[8] = system: HER2+ NCI-N87 gastric tumor cell line; assay: xCELLigence real time cell analysis ADCC assay with trastuzumab against NCI-N87; assay type: cell-based; settings: 4 h and 24 h; E:T ratio of 2:1
Description: The HER2^+ NCI-N87 gastric tumor cell line was used as the target cells. CD16 variant transduced CYNK cells were thawed followed by two days recovery were used as the effector cells. […] Target cells were seeded at 8×10^4 cells/well in the 96-well plates in 100 μl assay buffer for 24 hours at 37° C. in 5% CO2. […] CYNK cells were added post 30 minutes antibodies incubation at 37° C. with 5% CO2.
The xCELLigence real time cell analysis (RTCA) system (ACEA Biosciences, San Diego, CA) was used for the determination of the ADCC response mediated by the combination of antibody and effector cells. This system can determine the real time proliferation or cell death in each well of a specialized 96-well plate with electrodes attached to the bottom E-plate by measuring cell adherence as determined by the impedance of the electrical signal that passes through the plate. The more cells that are attached to the bottom of the well the higher the resulting impedance or cell index that is measured. The cell index over time in wells with effector cells, antibody, and target is compared to the cell index in wells with target alone and is converted to a percent cytolysis.
Target cells were incubated with the effector cells in the presence of the antibodies in 200 μl final volume for 24 hours. The xCELLigence software was then used to determine the percent cytotoxicity at 4 and 24 hours of co-culture time.

[9] = system: human placental CD34+ cells; assay: Fold expansion of CD16 variants transduced CYNK cells; assay type: cell-based
Text: as §3

[10] = in the presence of Trastuzumab, E:T ratio of 1:1
[11] = in the presence of trastuzumab and NCI-N87
[12] = MOI 200, Myc tag, Sirion Bio LVV

Cc1cncc(-c2nc(NCCc3c[nH]c4ccccc34)c3occc3n2)c1 [CRL20, N-(2-(1H-indol-3-yl)ethyl)-2-(5-methylpyridin-3-yl)furo[3,2-d]pyrimidin-4-amine]
CD34 cell expansion (CD34 cells): achieved the highest CD34 cell expansion | cell expansion compared to SR1 (CD34+ cells [1]): supported cell expansion the best | expansion, differentiation and cytotoxicity profiles compared to SR1 (CD34+ cells [1]): very similar

CC(C)c1csc2c(NCCc3c[nH]c4ccccc34)nc(-c3cncc(F)c3)nc12 [CRL18, N-(2-(1H-indol-3-yl)ethyl)-2-(5-fluoropyridin-3-yl)-7-isopropylthieno[3,2-d]pyrimidin-4-amine]
killing activities compared to cells cultured with SR1 (K562 tumor cell line): increased killing activities | CD56+/CD11a+ subpopulation compared to SR1 (CD34+ cells [2]): increased | cell expansion compared to SR1 (CD34+ cells [1]): slightly less expansion

CD16VP: high affinity (158 Val) and proteinase cleavage resistant (197Pro) CD16 variant
CD16 shedding resistance post PMAi stimulation (CD16 [3]; 6 donors): Yes | CD16 shedding percentage (CD16 [3]): 4.3%±3.0% | CD16 expression (CD16 [4]; 6 donors): 61.9% ± 15.4% | GM-CSF secretion against NCI-N87 [5, 10]: 5.4 ± 2.7 ng/1 × 10^6 cells | IFNg secretion against NCI-N87 [5, 10]: 1.8 ± 1.6 ng/1 × 10^6 cells | TNFa secretion against NCI-N87 [5, 10]: 0.8 ± 0.3 ng/1 × 10^6 cells | GM-CSF secretion compared to NT [5, 11]: significant difference | CD16VP expression after activation (CD16 [6]): resistant to shedding | CD16 expression (CD16 [7]): ~65% | cytotoxicity change (CYNK+Trastuzumab − CYNK+IgG) compared to NT [8]: significant difference

Cc1cncc(-c2nc(NCCc3c[nH]c4ccccc34)c3scc(C(C)C)c3n2)c1 [CRL21, N-(2-(1H-indol-3-yl)ethyl)-7-isopropyl-2-(5-methylpyridin-3-yl)thieno[3,2-d]pyrimidin-4-amine]
killing activities compared to cells cultured with SR1 (K562 tumor cell line): increased killing activities | CD56+/CD11a+ subpopulation compared to SR1 (CD34+ cells [2]): increased | cell expansion compared to SR1 (CD34+ cells [1]): slightly less expansion

Construct #1: CD16 variant: 176 V (also referred to as 158 V); 197 Glycine (G); with or without Myc tag
fold expansion compared to CD16VP and NT ([9]; Lentigen LVV, n=6 donors): comparable fold expansion | fold expansion compared to CD16VP ([9]; Myc tag, Sirion Bio LVV): comparable fold expansion | CD16 shedding post PMAi stimulation (CD16 [3]; Myc tag, Sirion Bio LVV): trend of shedding resistance | CD16 shedding percentage (CD16 [3]): 9.4%±8.5% | CD16 expression at Day10, Day35 and post thaw compared to CD16VP (CD16 [4]; Lentigen LVV, 6 donors): comparable CD16 expression | CD16 expression at Day10, 21, 28, 35 and 40 compared to CD16VP (CD16 [4]; [12]): comparable CD16 expression | CD16 expression at Day 10 compared to CD16VP (CD16 [4]; [12]): comparable CD16 expression | GM-CSF secretion compared to NT [5, 11]: significant difference | cytokine secretion (IFNg, TNFa and GM-CSF) compared to CD16VP [5, 11]: no significant difference | cytotoxicity change (CYNK+Trastuzumab − CYNK+IgG) compared to NT [8]: significant difference

CC(C)c1csc2c(NCCc3c[nH]c4ccccc34)nc(-c3cncc(C#N)c3)nc12 [CRL17, 5-(4-((2-(1H-indol-3-yl)ethyl)amino)-7-isopropylthieno[3,2-d]pyrimidin-2-yl)nicotinonitrile]
killing activities compared to cells cultured with SR1 (K562 tumor cell line): increased killing activities | CD56+/CD11a+ subpopulation compared to SR1 (CD34+ cells [2]): increased | cell expansion compared to SR1 (CD34+ cells [1]): slightly less expansion

Fc1cncc(-c2nc(NCCc3c[nH]c4ccccc34)c3occc3n2)c1 [CRL19, N-(2-(1H-indol-3-yl)ethyl)-2-(5-fluoropyridin-3-yl)furo[3,2-d]pyrimidin-4-amine]
CD34 cell expansion (CD34 cells): achieved the highest CD34 cell expansion | cell expansion compared to SR1 (CD34+ cells [1]): supported cell expansion the best | expansion, differentiation and cytotoxicity profiles compared to SR1 (CD34+ cells [1]): very similar

N#Cc1cncc(-c2nc(NCCc3c[nH]c4ccccc34)c3occc3n2)c1 [CRL22, 5-(4-((2-(1H-indol-3-yl)ethyl)amino)furo[3,2-d]pyrimidin-2-yl)nicotinonitrile]
CD34 cell expansion (CD34 cells): achieved the highest CD34 cell expansion | cell expansion compared to SR1 (CD34+ cells [1]): supported cell expansion the best | expansion, differentiation and cytotoxicity profiles compared to SR1 (CD34+ cells [1]): very similar
